Laboratory results: BindingDB's records for doi:10.1016/j.bmcl.2003.11.084 (Liaoning Normal University, 2004)

Legend:
[1] = Inhibitory activity against the wheat germ DNA topoisomerase I
[2] = Inhibitory activity against the calf thymus DNA topoisomerase I
[3] = Inhibitory activity against the wheat germ DNA topoisomerase I; remark: listed apart in the source

c1coc(-c2ccnc(-c3cccs3)c2)c1 [4-Furan-2-yl-2-thiophen-2-yl-pyridine]
IC50 [1]: 400 µM

C(=C\c1ccco1)/c1cc(-c2ccco2)cc(-c2cccs2)n1 [4-Furan-2-yl-2-((E)-2-furan-2-yl-vinyl)-6-thiophen-2-yl-pyridine]
IC50 [2]: 200 µM | IC50 [3]: < 10 µM

c1coc(-c2cc(-c3cccs3)nc(-c3cccs3)c2)c1 [4-Furan-2-yl-2,6-di-thiophen-2-yl-pyridine]
IC50 [1]: 50 µM
